Data taken from ChEMBL document CHEMBL4610091, “Antimalarial 9-Methoxystrobilurins, Oudemansins, and Related Polyketides from Cultures of Basidiomycete Favolaschia Species” (J Nat Prod, 2020).

Assays:
MCF7 = assay: Cytotoxicity against human MCF7 cells by resazurin microplate assay; type: functional, cell-based
Vero = assay: Cytotoxicity against African green monkey Vero cells by green fluorescent protein-based assay; type: cell-based; conditions: Chlorocebus sabaeus
Plasmodium falciparum = assay: Antiplasmodial activity against Plasmodium falciparum K1 assessed as reduction in [3H]-hypoxanthine after 42 hrs by microculture radioisotope technique; type: functional, organism-based
NCI-H187 = assay: Cytotoxicity against human NCI-H187 cells by resazurin microplate assay; type: functional, cell-based
[1] = Selectivity index, ratio of IC50 for African green monkey Vero cells to IC50 for Plasmodium falciparum K1; type: toxicity; conditions: read-out: Ratio IC50

SMILES | IC50 (MCF7) [µM] | IC50 (Vero) [µM] | IC50 (Plasmodium falciparum) [µM] | IC50 (NCI-H187) [µM] | selectivity ratio [1]
COC(=O)/C(COC(=O)Cc1ccccc1)=C(/C)[C@H](/C=C/c1ccc(Cl)c(OC)c1)OC | > 109 | 55.4 | > 22 | 37.9 | –
COC(=O)c1cc(-c2ccc3c(c2)O[C@@]2(CO3)O[C@H](C=C(C)C)OC2(C)C)cc(OC)c1C | – | 13.6 | > 22 | 53.4 | –
C=CC(C)(C)O[C@H]1COc2ccc(/C=C/[C@H](OC)[C@@H](C)/C(=C\OC)C(=O)OC)cc2OC1(C)C | > 105 | 24.5 | 0.24 | 0.96 | 102
CO\C=C(C(=O)OC)/C(C)=C\C=C\c1ccc2c(c1)OC(C)(C)[C@@H](OCC=C(C)C)CO2 | 24.8 | > 113 | 0.84 | 4.9 | > 135
CO/C=C(/C(=O)OC)[C@H](C)[C@@H](O)/C=C/c1ccccc1 | – | > 181 | > 36 | 160 | –
C=CC(C)(C)O[C@H]1COc2cc(C(=O)OC)c(C)c(OC)c2OC1(C)C | > 113 | 43.4 | 8.4 | 54.8 | –
C[C@]1([C@@H]2Cc3cc(C(N)=O)cc(Cl)c3O2)CCC(=O)O1 | > 169 | > 169 | > 34 | > 169 | –
Cc1c2ccncc2c(C)c2c1[nH]c1ccccc12 [ELLIPTECINE] | – | 7.47 | – | 9.3 | –
CO/C=C(/C(=O)OC)[C@H](C)[C@H](/C=C/c1ccc2c(c1)OC(C)(C)[C@@H](OCC=C(C)C)CO2)OC | > 105 | 28.2 | 0.48 | 2.2 | 58.8
C=CC(C)(C)O[C@H]1COc2ccc(/C=C/C(OC)=C(C)\C(=C/OC)C(=O)OC)cc2OC1(C)C | 44.1 | 97.9 | 0.089 | 0.15 | 1100
COC(=O)/C(CO)=C(/C)[C@H](/C=C/c1ccc(Cl)c(OC)c1)OC | > 147 | 123 | > 29 | 141 | –
C/C(=C\c1ccccc1)[C@@H](O)C(C)(C)O | > 242 | > 242 | > 48 | > 242 | –
CO/C=C(/C(=O)OC)C(C)C(=O)/C=C/c1ccccc1 (centres undefined) | > 182 | > 182 | > 36 | 60.1 | –
CO/C=C(/C(=O)OC)C(C)C(=O)/C=C/c1ccc2c(c1)OC(C)(C)[C@@H](OCC=C(C)C)CO2 (some centres undefined) | > 109 | 68.2 | 4.2 | 9.4 | 16.3
CC(=O)OCC/C(C)=C\[C@H](O)[C@H](O)c1ccccc1 | > 189 | > 189 | > 38 | > 189 | –
CO/C=C(/C(=O)OC)C(C)C(=O)/C=C/c1ccc2c(c1)O[C@@]1(CO2)O[C@H](C=C(C)C)OC1(C)C (mixture of isomers) | 23.2 | 18.4 | 10.8 | 5.8 | 1.7
COC(=O)c1cc(-c2ccccc2)cc(OC)c1C | > 195 | 74 | > 39 | 188 | –
CO/C=C(/C(=O)OC)[C@H](C)[C@H](/C=C/c1ccc2c(c1)OC(C)(C)[C@@H](O)CO2)OC | > 123 | > 123 | 22.3 | 56.9 | > 5.2
CO/C=C(/C(=O)OC)[C@H](C)[C@H](/C=C/c1cccc(OC)c1)OC | > 156 | 112 | 10.3 | 97.7 | 10.9
COC(=O)/C(CO)=C(/C)[C@H](/C=C/c1ccccc1)OC | > 181 | > 181 | > 36 | > 181 | –
C/C(=C/[C@H](O)[C@H](O)c1ccccc1)CCO | > 225 | > 225 | > 45 | > 225 | –
O[C@@H](c1cc(C(F)(F)F)nc2c(C(F)(F)F)cccc12)[C@H]1CCCCN1 | – | – | 0.052 | – | –
C/C(=C\c1ccccc1)[C@@H](O)C(C)(C)C(=O)O | > 213 | > 213 | > 43 | > 213 | –
C[C@H]1[C@@H](O)O[C@@H]2O[C@@]3(C)CC[C@H]4[C@H](C)CC[C@@H]1[C@@]24OO3 [ARTENIMOL] | – | – | 0.0031 | – | –
CO\C=C(C(=O)OC)/C(C)=C(\C=C\c1ccc2c(c1)O[C@@]1(CO2)O[C@H](C=C(C)C)OC1(C)C)OC | > 103 | > 103 | 0.14 | 3.3 | > 736
